Assay results: US10526314B2, “Hydroxyalkyl-substituted heteroaryltriazole derivatives and uses thereof” (BAYER AKTIENGESELLSCHAFT, priority 2016, dated 2020)

What was measured:
human V1a receptor = molecular target: T1, human V1a receptor (Homo sapiens, UniProt P37288); assay: Cellular in vitro assay for determining vasopressin receptor activity (V1a, aequorin luminescence); format: cell-based; conditions: for IC50: CHO cell line transfected with human V1a receptor, [Arg8]-vasopressin at EC50 concentration, read-out: IC50 hV1a; for ratio IC50 hV2/hV1a: selectivity ratio IC50 hV2 / IC50 hV1a
T1 construct: expressed in transfected cells; host or cells: CHO K1 (ATCC), also stably transfected with a modified aequorin
Method: (§1) B-1. Cellular In Vitro Assay for Determining Vasopressin Receptor Activity
(§2) The identification of agonists and antagonists of the V1a and V2 vasopressin receptors from humans, rats and dogs as well as the quantification of the activity of the compounds of the invention is carried out using recombinant cell lines. These cell lines originally derive from a hamster's ovary epithelial cell (Chinese Hamster Ovary, CHO K1, ATCC: American Type Culture Collection, Manassas, Va. 20108, USA). The test cell lines constitutively express the human, rat or dog V1a or V2 receptors. In case of the Gαq-coupled V1a receptors, cells are also stably transfected with a modified form of the calcium-sensitive photoproteins aequorin (human and rat V1a) or obelin (dog V1a), which, after reconstitution with the cofactor coelenterazine, emit light when there are increases in free calcium concentrations [Rizzuto R, Simpson A W, Brini M, Pozzan T, Nature 358, 325-327 (1992); Illarionov B A, Bondar V S, Illarionova V A, Vysotski E S, Gene 153 (2), 273-274 (1995)]. The resulting vasopressin receptor cells react to stimulation of the recombinantly expressed V1a receptors by intracellular release of calcium ions, which can be quantified by the resulting photoprotein luminescence. The Gs-coupled V2 receptors are stably transfected into cell lines expressing the gene for firefly luciferase under control of a CRE-responsible promoter. Activation of V2 receptors induces the activation of the CRE-responsive promoter via cAMP increase, thereby inducing the expression of firefly luciferase. The light emitted by photoproteins of V1a cell lines as well as the light emitted by firefly luciferase of V2 cell lines corresponds to the activation or inhibition of the respective vasopressin receptor. The bioluminescence of the cell lines is detected using a suitable luminometer [Milligan G, Marshall F, Rees S, Trends in Pharmacological Sciences 17, 235-237 (1996)].
Vasopressin V1a Receptor Cell Lines:
On the day before the assay, the cells are plated out in culture medium (DMEM/F12, 2% FCS, 2 mM glutamine, 10 mM HEPES, 5 μg/ml coelenterazine) in 384-well microtiter plates and kept in a cell incubator (96% humidity, 5% v/v CO2, 37° C.). On the day of the assay, test compounds in various concentrations are placed for 10 minutes in the wells of the microtiter plate before the agonist [Arg^8]-vasopressin at EC50 concentration is added. The resulting light signal is measured immediately in a luminometer.
(§3) Table 1A below lists individual IC50 values for the compounds of the invention (including racemic mixtures as well as separated enantiomers) that were obtained from cell lines transfected with the human V1a or V2 receptor: […]

human V2 receptor = molecular target: T2, human V2 receptor (Homo sapiens, UniProt P30518); assay: Cellular in vitro assay for determining vasopressin receptor activity (V2, CRE-luciferase); format: cell-based; conditions: CHO cell line transfected with human V2 receptor; [Arg8]-vasopressin at EC50 concentration; read-out: IC50 hV2
T2 construct: expressed in transfected cells; host or cells: CHO K1 (ATCC) expressing firefly luciferase under a CRE-responsive promoter
Method: as §1, §2
Vasopressin V2 Receptor Cell Lines:
On the day before the assay, the cells are plated out in culture medium (DMEM/F12, 2% FCS, 2 mM glutamine, 10 mM HEPES) in 384-well microtiter plates and kept in a cell incubator (96% humidity, 5% v/v CO2, 37° C.). On the day of the assay, test compounds in various concentrations and the agonist [Arg^8]-vasopressin at EC50 concentration are added together to the wells, and plates are incubated for 3 hours in a cell incubator. Upon addition of the cell lysis reagent Triton™ and the substrate luciferin, luminescence of firefly luciferase is measured in a luminometer.
as §3

T1 sequence (P37288 whole entry): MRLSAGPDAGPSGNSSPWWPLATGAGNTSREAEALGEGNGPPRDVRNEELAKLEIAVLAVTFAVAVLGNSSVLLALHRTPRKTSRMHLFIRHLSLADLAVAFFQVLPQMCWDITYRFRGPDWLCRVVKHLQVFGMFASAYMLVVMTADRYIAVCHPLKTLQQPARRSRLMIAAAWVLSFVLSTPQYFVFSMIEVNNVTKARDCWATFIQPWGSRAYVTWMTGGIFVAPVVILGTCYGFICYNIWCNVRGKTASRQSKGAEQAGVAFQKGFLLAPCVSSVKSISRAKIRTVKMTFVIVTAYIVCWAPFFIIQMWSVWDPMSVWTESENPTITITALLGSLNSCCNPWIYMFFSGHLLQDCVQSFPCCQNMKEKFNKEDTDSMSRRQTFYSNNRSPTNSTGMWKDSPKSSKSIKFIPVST
T2 sequence (P30518 whole entry): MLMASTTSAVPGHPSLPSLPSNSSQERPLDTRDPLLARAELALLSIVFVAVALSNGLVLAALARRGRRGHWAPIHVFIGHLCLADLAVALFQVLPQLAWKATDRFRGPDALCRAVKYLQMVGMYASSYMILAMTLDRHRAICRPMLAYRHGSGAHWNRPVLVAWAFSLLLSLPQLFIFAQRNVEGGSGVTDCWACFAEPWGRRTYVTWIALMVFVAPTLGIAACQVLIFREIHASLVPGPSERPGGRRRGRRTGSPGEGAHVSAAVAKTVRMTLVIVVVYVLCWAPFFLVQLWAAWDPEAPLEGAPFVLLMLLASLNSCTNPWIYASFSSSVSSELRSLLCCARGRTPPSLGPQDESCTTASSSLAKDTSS

Row | Structure (SMILES) | IC50 (human V1a receptor) | ratio IC50 hV2/hV1a (human V1a receptor) | IC50 (human V2 receptor)
1 | C[C@@H](O)c1nc(Cn2nc(-c3ccc(Cl)cc3)n(C[C@H](O)C(F)(F)F)c2=O)nn1-c1ncccc1Cl [Example 5, 5-(4-Chlorophenyl)-2-({1-(3-chloropyridin-2-yl)-5-[(1R)-1-hydroxyethyl]-1H-1,2,4-triazol-3-yl}methyl)-4-[(2S)-3,3,3-trifluoro-2-hydroxypropyl]-2,4-dihydro-3H-1,2,4-triazol-3-one] | 1.35 nM | 20.0 | 27 nM
2 | C[C@@H](O)c1nc(Cn2nc(-c3ccc(Cl)cc3)n(C[C@H](O)C(F)(F)F)c2=O)nn1-c1ccncc1Cl [Example 6, 5-(4-Chlorophenyl)-2-({1-(3-chloropyridin-4-yl)-5-[(1R)-1-hydroxyethyl]-1H-1,2,4-triazol-3-yl}methyl)-4-[(2S)-3,3,3-trifluoro-2-hydroxypropyl]-2,4-dihydro-3H-1,2,4-triazol-3-one] | 2.35 nM | 17.2 | 40.3 nM
3 | C[C@H](O)c1nc(Cn2nc(-c3ccc(Cl)cc3)n(C[C@H](O)C(F)(F)F)c2=O)nn1-c1ccncc1Cl [Example 7, 5-(4-Chlorophenyl)-2-({1-(3-chloropyridin-4-yl)-5-[(1S)-1-hydroxyethyl]-1H-1,2,4-triazol-3-yl}methyl)-4-[(2S)-3,3,3-trifluoro-2-hydroxypropyl]-2,4-dihydro-3H-1,2,4-triazol-3-one] | 3 nM | 5.3 | 16 nM
4 | COc1cccnc1-n1nc(Cn2nc(-c3ccc(Cl)cc3)n(C[C@H](O)C(F)(F)F)c2=O)nc1[C@H](C)O [Example 8, 5-(4-Chlorophenyl)-2-({5-[(1S)-1-hydroxyethyl]-1-(3-methoxypyridin-2-yl)-1H-1,2,4-triazol-3-yl}methyl)-4-[(2S)-3,3,3-trifluoro-2-hydroxypropyl]-2,4-dihydro-3H-1,2,4-triazol-3-one] | 3.65 nM | 2.6 | 9.4 nM
5 | C[C@H](O)c1nc(Cn2nc(-c3ccc(Cl)cc3)n(C[C@H](O)C(F)(F)F)c2=O)nn1-c1c(Cl)cncc1Cl [Example 9, 5-(4-Chlorophenyl)-2-({1-(3,5-dichloropyridin-4-yl)-5-[(1S)-1-hydroxyethyl]-1H-1,2,4-triazol-3-yl}methyl)-4-[(2S)-3,3,3-trifluoro-2-hydroxypropyl]-2,4-dihydro-3H-1,2,4-triazol-3-one] | 4.13 nM | 5.9 | 24.5 nM
6 | C[C@H](O)c1nc(Cn2nc(-c3ccc(Cl)cc3)n(C[C@H](O)C(F)(F)F)c2=O)nn1-c1nccs1 [Example 10, 5-(4-Chlorophenyl)-2-({5-[(1S)-1-hydroxyethyl]-1-(1,3-thiazol-2-yl)-1H-1,2,4-triazol-3-yl}methyl)-4-[(2S)-3,3,3-trifluoro-2-hydroxypropyl]-2,4-dihydro-3H-1,2,4-triazol-3-one] | 4.25 nM | 24.7 | 105 nM
7 | C[C@H](O)c1nc(Cn2nc(-c3ccc(Cl)cc3)n(C[C@H](O)C(F)(F)F)c2=O)nn1-c1ncccc1F [Example 11, 5-(4-Chlorophenyl)-2-({1-(3-fluoropyridin-2-yl)-5-[(1S)-1-hydroxyethyl]-1H-1,2,4-triazol-3-yl}methyl)-4-[(2S)-3,3,3-trifluoro-2-hydroxypropyl]-2,4-dihydro-3H-1,2,4-triazol-3-one] | 5.6 nM | 4.1 | 22.7 nM
8 | C[C@H](O)c1nc(Cn2nc(-c3ccc(Cl)cc3)n(C[C@H](O)C(F)(F)F)c2=O)nn1-c1ncccc1OC(F)(F)F [Example 12, 5-(4-Chlorophenyl)-2-({5-[(1S)-1-hydroxyethyl]-1-[3-(trifluoromethoxy)pyridin-2-yl]-1H-1,2,4-triazol-3-yl}methyl)-4-[(2S)-3,3,3-trifluoro-2-hydroxypropyl]-2,4-dihydro-3H-1,2,4-triazol-3-one] | 5.7 nM | 11.3 | 64.7 nM
